Values of other authors in patent US20060003004A1 (Collegium Pharmaceutical, Inc., priority 2002, published 2006).
Like-named read-outs stand apart in the source and are kept apart here. Marks after values point to notes of the source that are not given here.

Columns and labels:
[1] = 40-120 mg/day, 1032 patients
uptake of dopamine = uptake of dopamine (Homo sapiens, UniProt Q01959)
[2] = for Participants who failed the dose escalation: escalation to 200 mg daily
[3] = system: beta adrenoceptors in rat cortex; conditions: after chronic administration
[4] = system: alpha adrenergic receptors
[5] = system: beta adrenergic receptors
[6] = not given; remark: listed apart in the source
[7] = intravenous, 10 patients
[8] = not given; remark: listed apart in the source
[9] = Phase 2 and Phase 3 depression studies
[10] = n=1,033
[11] = 100 mg/day twice daily, N = 1871
[12] = 200 mg/day twice daily, N = 865

Chain of uptake of dopamine (Q01959 whole entry): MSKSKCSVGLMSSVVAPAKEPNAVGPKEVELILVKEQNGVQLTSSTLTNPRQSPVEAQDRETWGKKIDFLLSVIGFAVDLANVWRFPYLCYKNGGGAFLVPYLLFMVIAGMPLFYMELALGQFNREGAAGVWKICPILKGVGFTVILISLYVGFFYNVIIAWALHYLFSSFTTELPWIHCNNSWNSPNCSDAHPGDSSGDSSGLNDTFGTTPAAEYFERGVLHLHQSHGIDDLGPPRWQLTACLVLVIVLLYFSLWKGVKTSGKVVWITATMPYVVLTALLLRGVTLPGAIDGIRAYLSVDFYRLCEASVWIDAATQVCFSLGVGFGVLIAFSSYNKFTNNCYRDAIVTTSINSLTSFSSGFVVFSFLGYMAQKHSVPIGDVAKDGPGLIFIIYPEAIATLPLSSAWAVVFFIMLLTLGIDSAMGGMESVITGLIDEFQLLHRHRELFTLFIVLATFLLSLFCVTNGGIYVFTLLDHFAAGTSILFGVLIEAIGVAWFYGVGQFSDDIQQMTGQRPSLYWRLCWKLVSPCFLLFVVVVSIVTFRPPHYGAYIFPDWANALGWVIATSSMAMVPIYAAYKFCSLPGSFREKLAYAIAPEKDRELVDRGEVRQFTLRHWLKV

**Q.** With CNCC[C@H](Oc1cccc2ccccc12)c1cccs1 [duloxetine] as the molecule, how does the “Rate of adverse events nausea, dry mouth, fatigue, dizziness, constipation, somnolence, decreased appetite, and sweating” value [1] read?
**A.** Its value is “more than 5%”.

**Q.** For CCN(CC)C(=O)C1(c2ccccc2)CC1CN (stereo not shown) [milnacipran, Milnacipran], which “Affinity for muscarinic receptors” value (muscarinic receptors) is on record?
**A.** The value was “no affinity”.

**Q.** And the “Affinity for histaminergic receptors” value (histaminergic receptors)?
**A.** The value was “no affinity”.

**Q.** What about the “Frequency of Adverse Experiences: Abdominal Pain” value (50 mg/day twice daily, N = 426) of the same molecule?
**A.** The value was 6.1%.

**Q.** And the “Frequency of Adverse Experiences: Agitation” value (from here on “Frequency … Agitation”) (50 mg/day twice daily, N = 426)?
**A.** The value was 1.6%.

**Q.** And the “Frequency of Adverse Experiences: Anxiety” value (from here on “Frequency … Anxiety”) (50 mg/day twice daily, N = 426)?
**A.** The value was 2.8%.

**Q.** And the “Frequency of Adverse Experiences: Dry mouth” value (“Frequency … Dry mouth” below) (50 mg/day twice daily, N = 426)?
**A.** The value was 9.4%.

**Q.** And the “Frequency of Adverse Experiences: Dyspepsia” value (“Frequency … Dyspepsia” for short) (50 mg/day twice daily, N = 426)?
**A.** Its value is 3.5%.

**Q.** What about the “Frequency of Adverse Experiences: Dysuria” value (from here on “Frequency … Dysuria”) (50 mg/day twice daily, N = 426) of the same molecule?
**A.** Its value is 1.4%.

**Q.** And the “Frequency of Adverse Experiences: Fatigue” value (“Frequency … Fatigue” below) (50 mg/day twice daily, N = 426)?
**A.** The value was 2.8%.

**Q.** And the “Frequency of Adverse Experiences: Headache” value (shortened to “Frequency … Headache”) (50 mg/day twice daily, N = 426)?
**A.** Its value is 14.6%.

**Q.** What about the “Frequency of Adverse Experiences: Hot flushes” value (from here on “Frequency … Hot flushes”) (50 mg/day twice daily, N = 426) of the same molecule?
**A.** The value was 1.6%.

**Q.** And the “Frequency of Adverse Experiences: Increased Sweating” value (“Frequency … Increased Sweating” below) (50 mg/day twice daily, N = 426)?
**A.** The value was 14.0%.

**Q.** What about the “Frequency of Adverse Experiences: Insomnia” value (from here on “Frequency … Insomnia”) (50 mg/day twice daily, N = 426) of the same molecule?
**A.** Its value is 9.2%.

**Q.** What about the “Frequency of Adverse Experiences: Nausea” value (50 mg/day twice daily, N = 426) of the same molecule?
**A.** The value was 12.7%.

**Q.** And the “Frequency of Adverse Experiences: Nervousness” value (“Frequency … Nervousness” for short) (50 mg/day twice daily, N = 426)?
**A.** Its value is 4.2%.

**Q.** And the “Frequency of Adverse Experiences: Palpitations” value (“Frequency … Palpitations” below) (50 mg/day twice daily, N = 426)?
**A.** The value was 2.3%.

**Q.** And the “Frequency of Adverse Experiences: Somnolence” value (“Frequency … Somnolence” below) (50 mg/day twice daily, N = 426)?
**A.** Its value is 5.4%.

**Q.** What about the “Frequency of Adverse Experiences: Tremor” value (50 mg/day twice daily, N = 426) of the same molecule?
**A.** The value was 0.9%.

**Q.** And the “Frequency of Adverse Experiences: Vertigo” value (from here on “Frequency … Vertigo”) (50 mg/day twice daily, N = 426)?
**A.** The value was 1.6%.

**Q.** And the “Frequency of Adverse Experiences: Vomiting” value (“Frequency … Vomiting” below) (50 mg/day twice daily, N = 426)?
**A.** Its value is 3.8%.

**Q.** And the “Frequency … Agitation” value [11]?
**A.** Its value is 3.3%.

**Q.** What about the “Frequency … Anxiety” value [11] of the same molecule?
**A.** Its value is 4.1%.

**Q.** What about the “Frequency … Dry mouth” value [11] of the same molecule?
**A.** The value was 7.9%.

**Q.** What about the “Frequency … Dyspepsia” value [11] of the same molecule?
**A.** Its value is 2.1%.

**Q.** And the “Frequency … Dysuria” value [11]?
**A.** Its value is 2.1* %.

**Q.** And the “Frequency … Fatigue” value [11]?
**A.** The value was 2.5%.

**Q.** What about the “Frequency … Headache” value [11] of the same molecule?
**A.** The value was 8.4%.

**Q.** What about the “Frequency … Hot flushes” value [11] of the same molecule?
**A.** The value was 3.0%.

**Q.** What about the “Frequency … Increased Sweating” value [11] of the same molecule?
**A.** Its value is 4.3* %.

**Q.** What about the “Frequency … Insomnia” value [11] of the same molecule?
**A.** The value was 6.1%.

**Q.** And the “Frequency of Adverse Experiences: Nausea” value [11]?
**A.** Its value is 11.2%.

**Q.** And the “Frequency … Nervousness” value [11]?
**A.** Its value is 2.0%.

**Q.** And the “Frequency … Palpitations” value [11]?
**A.** Its value is 2.7%.

**Q.** And the “Frequency … Somnolence” value [11]?
**A.** Its value is 2.3%.

**Q.** And the “Frequency of Adverse Experiences: Tremor” value [11]?
**A.** Its value is 2.5%.

**Q.** And the “Frequency … Vertigo” value [11]?
**A.** The value was 5.0%.

**Q.** What about the “Frequency … Vomiting” value [11] of the same molecule?
**A.** Its value is 3.9%.

**Q.** And the “Frequency of Adverse Experiences: Abdominal Pain” value [12]?
**A.** The value was 7.6%.

**Q.** And the “Frequency … Agitation” value [12]?
**A.** Its value is 2.9%.

**Q.** What about the “Frequency … Anxiety” value [12] of the same molecule?
**A.** Its value is 5.1%.

**Q.** And the “Frequency … Dry mouth” value [12]?
**A.** Its value is 9.0%.

**Q.** What about the “Frequency … Dyspepsia” value [12] of the same molecule?
**A.** The value was 2.2%.

**Q.** And the “Frequency … Dysuria” value [12]?
**A.** The value was 3.7* %.

**Q.** And the “Frequency … Fatigue” value [12]?
**A.** Its value is 4.4%.

**Q.** And the “Frequency … Headache” value [12]?
**A.** The value was 13.5%.

**Q.** What about the “Frequency … Hot flushes” value [12] of the same molecule?
**A.** The value was 3.6%.

**Q.** And the “Frequency … Increased Sweating” value [12]?
**A.** Its value is 11.6* %.

**Q.** And the “Frequency … Insomnia” value [12]?
**A.** The value was 11.3%.

**Q.** And the “Frequency of Adverse Experiences: Nausea” value [12]?
**A.** The value was 19.4* %.

**Q.** And the “Frequency … Nervousness” value [12]?
**A.** Its value is 2.8%.

**Q.** What about the “Frequency … Palpitations” value [12] of the same molecule?
**A.** The value was 4.6%.

**Q.** And the “Frequency … Somnolence” value [12]?
**A.** Its value is 3.5%.

**Q.** And the “Frequency of Adverse Experiences: Tremor” value [12]?
**A.** The value was 6.7* %.

**Q.** And the “Frequency … Vertigo” value [12]?
**A.** The value was 4.5%.

**Q.** And the “Frequency … Vomiting” value [12]?
**A.** The value was 7.9* %.

**Q.** And the “Effect on uptake of dopamine” value (uptake of dopamine)?
**A.** The value was “does not affect”.

**Q.** And the “Global pain score, mean value” ([2]; 1-7 scale (1 very much improved, 4 unchanged, 7 very much worse), FMS patients who reached endpoint, placebo 4.3, p=0.0001)?
**A.** The value was 2.3.

**Q.** And the “Participants who failed the dose escalation” value ([2]; BID-IR group)?
**A.** The value was 6%.

**Q.** And the “Participants who failed the dose escalation” value ([2]; QD-IR group)?
**A.** The value was 19%.

**Q.** What about the “Effect on number of beta adrenoceptors in rat cortex” value [3] of the same molecule?
**A.** Its value is “does not affect”.

**Q.** What about the “Affinity for alpha adrenergic receptors” value [4] of the same molecule?
**A.** Its value is “no affinity”.

**Q.** And the “Affinity for beta adrenergic receptors” value [5]?
**A.** Its value is “no affinity”.

**Q.** And the “Adverse events: headache” value ([6]; 100 mg/day twice daily)?
**A.** The value was 9%.

**Q.** What about the “Adverse events: abdominal pain” value ([6]; 200 mg/day twice daily) of the same molecule?
**A.** Its value is 7%.

**Q.** What about the “Adverse events: headache” value ([6]; 200 mg/day twice daily) of the same molecule?
**A.** Its value is 8%.

**Q.** And the “Adverse events: nausea and vomiting” value ([6]; 200 mg/day twice daily)?
**A.** The value was 7%.

**Q.** And the “Affinity for dopaminergic receptors” value (dopaminergic receptors)?
**A.** Its value is “no affinity”.

**Q.** And the “Patients reporting transient nausea” value [7]?
**A.** Its value is “five of them reported transient nausea”.

**Q.** What about the “Parent drug eliminated unchanged via the kidneys” value ([8]; humans) of the same molecule?
**A.** The value was 90%.

**Q.** What about the half-life ([8]; humans) of the same molecule?
**A.** The half-life was “approximately 8 hours”.

**Q.** What about the “Time within which oral doses are absorbed and distributed in the body” value ([8]; oral doses) of the same molecule?
**A.** The value was 1 to 2 h.

**Q.** And the “Metabolites as share of the concentration of the parent drug” value ([8]; ten metabolites formed in the liver)?
**A.** Its value is “about 10%”.

**Q.** With COc1ccc(C(CN(C)C)C2(O)CCCCC2)cc1 (stereo not shown) [venlafaxine] as the molecule, how does the “Patients who discontinued treatment that did so due to nausea” value [9] read?
**A.** Its value is ~32%.

**Q.** What about the “Adverse experience incidence: anorexia” value [10] of the same molecule?
**A.** The value was 11%.

**Q.** And the “Adverse experience incidence: anxiety” value [10]?
**A.** Its value is 6%.

**Q.** And the “Adverse experience incidence: constipation” value [10]?
**A.** The value was 15%.

**Q.** What about the “Adverse experience incidence: dizziness” value [10] of the same molecule?
**A.** Its value is 19%.

**Q.** And the “Adverse experience incidence: dry mouth” value [10]?
**A.** Its value is 22%.

**Q.** What about the “Adverse experience incidence: insomnia” value [10] of the same molecule?
**A.** The value was 18%.

**Q.** And the “Adverse experience incidence: nausea” value [10]?
**A.** Its value is 37%.

**Q.** What about the “Adverse experience incidence: nervousness” value [10] of the same molecule?
**A.** Its value is 13%.

**Q.** And the “Adverse experience incidence: somnolence” value [10]?
**A.** The value was 23%.

**Q.** And the “Adverse experience incidence: tremor” value [10]?
**A.** Its value is 5%.

**Q.** What about the “Adverse experience incidence: vomiting” value [10] of the same molecule?
**A.** The value was 6%.
